Results on 20 molecules are retold here after the supplement of paper PMC4954754.

± gives the uncertainty stated by the source.

Common to all, as to conditions: 18 h
Test [1] has as its system HEK293T-Rex ERSE-FLuc. The test can be described thus: EC50 for ERSE-FLuc reporter activation. Here is the method:
(§1)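 Dose-response of hit compounds in HEK293T-Rex cells stably expressing ERSE-FLuc or XBP1-RLuc reporters, 18 hr treatment, 1536-well; luminescence normalised to 500 nM thapsigargin (100%) and DMSO (0%), fitted to give EC50 (M) and maximal activation; '>' marks EC50 above the top tested dose (~17 µM).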

Test [2] deals with HEK293T-Rex XBP1-RLuc. In words: maximal XBP1-RLuc activation from dose-response fit, relative to thapsigargin (% of thapsigargin); higher = stronger activation. Here is the method:
as §1

For test [3], the system named is HEK293T-Rex ERSE-FLuc. In words: maximal ERSE-FLuc activation from dose-response fit, relative to thapsigargin (% of thapsigargin); higher = stronger activation. As to the method:
as §1

In test [4] the test system is HEK293T-Rex XBP1-RLuc. In words: EC50 for XBP1-RLuc reporter activation. As to the method:
as §1

With `CCc1ccc(NC(=O)/C=C/c2ccco2)cc1`, the “EC50 for ERSE-FLuc reporter activation” value in the test on HEK293T-Rex ERSE-FLuc [1] is greater than 16.8 µM. The “maximal XBP1-RLuc activation” value with HEK293T-Rex XBP1-RLuc [2] worked out at 4.4 ± 8.8. The “maximal ERSE-FLuc activation” value in the test with HEK293T-Rex ERSE-FLuc [3] turned out to be 19.3 ± 2.3. For the same molecule, the “EC50 for XBP1-RLuc reporter activation” value with HEK293T-Rex XBP1-RLuc [4] was greater than 16.8 µM.

As to `COc1ccc(-c2csc(-c3ccc(O)cc3)n2)cc1`, the “EC50 for ERSE-FLuc reporter activation” value in the test with HEK293T-Rex ERSE-FLuc [1] was greater than 19.1 µM. Further, the “maximal XBP1-RLuc activation” value in the test on HEK293T-Rex XBP1-RLuc [2] was 33.9 ± 1.9. Besides, in the test on HEK293T-Rex ERSE-FLuc [3], the “maximal ERSE-FLuc activation” value is 30.9 ± 6.5. Further, the “EC50 for XBP1-RLuc reporter activation” value in the test with HEK293T-Rex XBP1-RLuc [4] was greater than 19.1 µM.

Turning to `CCOc1ccc(/C=C(\C#N)c2[nH]nc(N)c2C#N)cc1OCC`, the “EC50 for ERSE-FLuc reporter activation” value in the test on HEK293T-Rex ERSE-FLuc [1] came out at 10 µM. Further, in the test with HEK293T-Rex XBP1-RLuc [2], the “maximal XBP1-RLuc activation” value amounted to 15.1 ± 1.6. Also, in the test with HEK293T-Rex ERSE-FLuc [3], the “maximal ERSE-FLuc activation” value came to 59.8 ± 6.2. Further, the “EC50 for XBP1-RLuc reporter activation” value with HEK293T-Rex XBP1-RLuc [4] is greater than 16.9 µM.

Take `CN(C)c1ccc(/C=N/NC(=O)c2cccc(Br)c2)cc1`: the “EC50 for ERSE-FLuc reporter activation” value with HEK293T-Rex ERSE-FLuc [1] was greater than 16.9 µM. The “maximal XBP1-RLuc activation” value in the test with HEK293T-Rex XBP1-RLuc [2] stood at 2.34 ± 2. In addition, the “maximal ERSE-FLuc activation” value in the test on HEK293T-Rex ERSE-FLuc [3] stood at 19.2 ± 4.8. Further, the “EC50 for XBP1-RLuc reporter activation” value in the test with HEK293T-Rex XBP1-RLuc [4] was greater than 16.9 µM.

As to `Cc1ccc(O)c(NC(=O)c2cc(C3CC3)on2)c1`, the “EC50 for ERSE-FLuc reporter activation” value with HEK293T-Rex ERSE-FLuc [1] was 2.02 µM. In the test on HEK293T-Rex XBP1-RLuc [2], the “maximal XBP1-RLuc activation” value was found to be 23.7 ± 1.1. Besides, the “maximal ERSE-FLuc activation” value in the test with HEK293T-Rex ERSE-FLuc [3] worked out at 91.7 ± 12. In addition, in the test on HEK293T-Rex XBP1-RLuc [4], the “EC50 for XBP1-RLuc reporter activation” value was greater than 16.9 µM.

On to `Fc1ccc(-c2nnc3ccc(N4CCN(c5ccccn5)CC4)nn23)cc1`, for which the “EC50 for ERSE-FLuc reporter activation” value in the test with HEK293T-Rex ERSE-FLuc [1] was greater than 16.9 µM. Further, in the test on HEK293T-Rex XBP1-RLuc [2], the “maximal XBP1-RLuc activation” value worked out at 7.7 ± 2.6. Also, the “maximal ERSE-FLuc activation” value with HEK293T-Rex ERSE-FLuc [3] was 5.1 ± 4.1. Also, the “EC50 for XBP1-RLuc reporter activation” value with HEK293T-Rex XBP1-RLuc [4] is greater than 16.9 µM.

As for `O=C(N/N=C\c1ccccc1[N+](=O)[O-])c1[nH]nc2c1CCc1ccccc1-2`, in the test with HEK293T-Rex ERSE-FLuc [1], the “EC50 for ERSE-FLuc reporter activation” value was greater than 16.9 µM. For the same molecule, in the test with HEK293T-Rex XBP1-RLuc [2], the “maximal XBP1-RLuc activation” value is 5.31 ± 2.3. Further, in the test on HEK293T-Rex ERSE-FLuc [3], the “maximal ERSE-FLuc activation” value is 23 ± 4.3. Moreover, the “EC50 for XBP1-RLuc reporter activation” value in the test on HEK293T-Rex XBP1-RLuc [4] was greater than 16.9 µM.

Turning to `COc1cccc(/C=N\NC(=O)c2n[nH]c3c2CCC3)c1`, the “EC50 for ERSE-FLuc reporter activation” value with HEK293T-Rex ERSE-FLuc [1] is greater than 16.6 µM. Further, the “maximal XBP1-RLuc activation” value with HEK293T-Rex XBP1-RLuc [2] came out at 4.03 ± 2.5. For the same molecule, the “maximal ERSE-FLuc activation” value with HEK293T-Rex ERSE-FLuc [3] was found to be 25.8 ± 1.9. The “EC50 for XBP1-RLuc reporter activation” value in the test with HEK293T-Rex XBP1-RLuc [4] was greater than 16.6 µM.

In the case of `COc1cccc(/C=N/NC(=O)c2n[nH]c3c2CCCC3)c1`, the “EC50 for ERSE-FLuc reporter activation” value in the test with HEK293T-Rex ERSE-FLuc [1] was greater than 16.9 µM. The “maximal XBP1-RLuc activation” value in the test with HEK293T-Rex XBP1-RLuc [2] turned out to be 3.95 ± 0.69. Besides, in the test on HEK293T-Rex ERSE-FLuc [3], the “maximal ERSE-FLuc activation” value came out at 29.6 ± 6.7. Further, in the test with HEK293T-Rex XBP1-RLuc [4], the “EC50 for XBP1-RLuc reporter activation” value was greater than 16.9 µM.

As for `CCn1c(/C(C#N)=C/c2ccc(OC)cc2)nc2ccccc21`, in the test on HEK293T-Rex ERSE-FLuc [1], the “EC50 for ERSE-FLuc reporter activation” value was greater than 19.4 µM. The “maximal XBP1-RLuc activation” value in the test with HEK293T-Rex XBP1-RLuc [2] amounted to 5.17 ± 3. Moreover, the “maximal ERSE-FLuc activation” value in the test with HEK293T-Rex ERSE-FLuc [3] came to 30.6 ± 6.3. The “EC50 for XBP1-RLuc reporter activation” value in the test on HEK293T-Rex XBP1-RLuc [4] is greater than 19.4 µM.

`CCCCCOc1ccc(N/C(N)=N/c2nc(C)cc(C)n2)cc1`: in the test on HEK293T-Rex ERSE-FLuc [1], the “EC50 for ERSE-FLuc reporter activation” value turned out to be 10.4 µM. The “maximal XBP1-RLuc activation” value with HEK293T-Rex XBP1-RLuc [2] worked out at 152 ± 12. Besides, the “maximal ERSE-FLuc activation” value with HEK293T-Rex ERSE-FLuc [3] was 68 ± 8.8. In addition, the “EC50 for XBP1-RLuc reporter activation” value in the test with HEK293T-Rex XBP1-RLuc [4] is 4.05 µM.

Turning to `O=[N+]([O-])c1ccccc1N/N=C/c1ccc(O)c(O)c1`, the “EC50 for ERSE-FLuc reporter activation” value in the test with HEK293T-Rex ERSE-FLuc [1] is greater than 16.9 µM. Moreover, the “maximal XBP1-RLuc activation” value in the test on HEK293T-Rex XBP1-RLuc [2] was found to be 43.4 ± 3.5. In addition, the “maximal ERSE-FLuc activation” value in the test on HEK293T-Rex ERSE-FLuc [3] was found to be 38 ± 11. In addition, the “EC50 for XBP1-RLuc reporter activation” value in the test with HEK293T-Rex XBP1-RLuc [4] is greater than 16.9 µM.

Regarding `COc1ccc(/C=C(\C#N)c2nc3ccccc3n2C)cc1`, the “EC50 for ERSE-FLuc reporter activation” value in the test with HEK293T-Rex ERSE-FLuc [1] is greater than 16.9 µM. Besides, in the test on HEK293T-Rex XBP1-RLuc [2], the “maximal XBP1-RLuc activation” value was found to be 0.49 ± 1.4. In the test with HEK293T-Rex ERSE-FLuc [3], the “maximal ERSE-FLuc activation” value amounted to 32.1 ± 2. In addition, in the test on HEK293T-Rex XBP1-RLuc [4], the “EC50 for XBP1-RLuc reporter activation” value is greater than 16.9 µM.

For the molecule `N/C(=N\N=C\c1ccc(O)c(O)c1)c1nonc1N`, the “EC50 for ERSE-FLuc reporter activation” value with HEK293T-Rex ERSE-FLuc [1] was 5.38 µM. Besides, the “maximal XBP1-RLuc activation” value in the test with HEK293T-Rex XBP1-RLuc [2] stood at 41.6 ± 6.1. The “maximal ERSE-FLuc activation” value in the test on HEK293T-Rex ERSE-FLuc [3] is 96.9 ± 3.7. In addition, the “EC50 for XBP1-RLuc reporter activation” value with HEK293T-Rex XBP1-RLuc [4] was greater than 16.9 µM.

Turning to `Cc1nc(-c2coc3c(O)c(O)ccc3c2=O)cs1`, the “EC50 for ERSE-FLuc reporter activation” value with HEK293T-Rex ERSE-FLuc [1] is greater than 16.9 µM. Moreover, the “maximal XBP1-RLuc activation” value in the test on HEK293T-Rex XBP1-RLuc [2] stood at 20.6 ± 1. Also, the “maximal ERSE-FLuc activation” value with HEK293T-Rex ERSE-FLuc [3] was determined as 35.2 ± 6.9. The “EC50 for XBP1-RLuc reporter activation” value in the test with HEK293T-Rex XBP1-RLuc [4] is greater than 16.9 µM.

Regarding `Oc1cccc(/C=N/Nc2ccc(Cl)nn2)c1O`, in the test with HEK293T-Rex ERSE-FLuc [1], the “EC50 for ERSE-FLuc reporter activation” value is greater than 17.9 µM. For the same molecule, the “maximal XBP1-RLuc activation” value in the test with HEK293T-Rex XBP1-RLuc [2] came out at 19.4 ± 1. Besides, the “maximal ERSE-FLuc activation” value in the test on HEK293T-Rex ERSE-FLuc [3] was determined as 41.7 ± 1.8. The “EC50 for XBP1-RLuc reporter activation” value in the test on HEK293T-Rex XBP1-RLuc [4] was greater than 17.9 µM.

On to `CCc1nc2sc(C(=O)c3ccccc3)c(N)c2cc1C`, for which the “EC50 for ERSE-FLuc reporter activation” value in the test with HEK293T-Rex ERSE-FLuc [1] was greater than 16.3 µM. Further, the “maximal XBP1-RLuc activation” value with HEK293T-Rex XBP1-RLuc [2] stood at 4.69 ± 3.2. Further, the “maximal ERSE-FLuc activation” value in the test with HEK293T-Rex ERSE-FLuc [3] came to 25.4 ± 6.3. Besides, the “EC50 for XBP1-RLuc reporter activation” value in the test on HEK293T-Rex XBP1-RLuc [4] is greater than 16.3 µM.

With `COc1cccc(-c2cc(C(=O)Nc3cc(C)ccc3O)no2)c1`, in the test with HEK293T-Rex ERSE-FLuc [1], the “EC50 for ERSE-FLuc reporter activation” value was greater than 16.9 µM. The “maximal XBP1-RLuc activation” value in the test with HEK293T-Rex XBP1-RLuc [2] was 19.1 ± 3.5. Further, the “maximal ERSE-FLuc activation” value in the test with HEK293T-Rex ERSE-FLuc [3] stood at 46.2 ± 7.9. In addition, the “EC50 for XBP1-RLuc reporter activation” value in the test with HEK293T-Rex XBP1-RLuc [4] was greater than 16.9 µM.

As for `COc1ccc(C(=O)Nc2nnc(-c3cccs3)s2)cc1`, in the test on HEK293T-Rex ERSE-FLuc [1], the “EC50 for ERSE-FLuc reporter activation” value is greater than 16.9 µM. Further, the “maximal XBP1-RLuc activation” value in the test on HEK293T-Rex XBP1-RLuc [2] amounted to 1.9 ± 0.9. Besides, the “maximal ERSE-FLuc activation” value with HEK293T-Rex ERSE-FLuc [3] came to 18.8 ± 1.5. The “EC50 for XBP1-RLuc reporter activation” value in the test on HEK293T-Rex XBP1-RLuc [4] is greater than 16.9 µM.

Take `Cc1ccc(C(=O)Nc2ccccc2N)cc1`: the “EC50 for ERSE-FLuc reporter activation” value with HEK293T-Rex ERSE-FLuc [1] was 4.27 µM. Moreover, in the test with HEK293T-Rex XBP1-RLuc [2], the “maximal XBP1-RLuc activation” value came out at 42.2 ± 2.2. Moreover, in the test with HEK293T-Rex ERSE-FLuc [3], the “maximal ERSE-FLuc activation” value amounted to 137 ± 15. In the test on HEK293T-Rex XBP1-RLuc [4], the “EC50 for XBP1-RLuc reporter activation” value is greater than 14.7 µM.
